Values of other authors, collected in US9546401B2, “Assays and methods for selecting a treatment regimen for a subject with depression” (The General Hospital Corporation, priority 2011, dated 2017).
Read-outs that look alike come from different tables or passages of the source.

Key:
depression = conditions: parenteral and certain oral forms; cited from earlier work
[1] = test system: adults with major depression; conditions: cited from earlier work
[2] = test system: adults with MDD and partial or nonresponse to an SSRI; conditions: cited from earlier work

C[S+](CC[C@H](N)C(=O)O)C[C@H]1O[C@@H](n2cnc3c(N)ncnc32)[C@H](O)[C@@H]1O (stereo partly shown) [SAM, S-adenosyl methionine]
antidepressant efficacy (depression): antidepressant efficacy greater than placebo and comparable to that of tricyclic antidepressants

CNCCC(Oc1ccc(C(F)(F)F)cc1)c1ccccc1 (stereo not shown) [fluoxetine]
rate of non-response ([1]; individuals with low or deficient serum folate): 35% | rate of non-response ([1]; serum folate levels in the normal range): 20%

Nc1nc2c(c(=O)[nH]1)N(C=O)C(CNc1ccc(C(=O)N[C@@H](CCC(=O)O)C(=O)O)cc1)CN2 (stereo partly shown) [folinic acid, Folinic acid]
Folate levels after treatment ([2]; 15-30 mg/day added to SSRIs, 8 weeks, baseline 28+/−19 ng/mL): 301 ± 203 ng/mL | HAM-D-17 score after treatment ([2]; 16 completers, baseline 19.1+/−3.9): 12.8+/−7.0 | remission (HAM-D-17 no greater than 7) ([2]; ITT sample): 18% | remission (HAM-D-17 no greater than 7) ([2]; completers): 19% | response (at least 50% reduction in HAM-D-17) ([2]; completers): 31% | efficacy as an adjunct in SSRI-refractory depressed individuals with normal folate levels ([2]; in vivo): only modestly effective | response (at least 50% reduction in HAM-D-17) ([2]; intent-to-treat (ITT) sample): 27%
